Test results from US5834435A, “Inhibition of TNF-α pleiotropic and cytotoxic effects” (priority 1996, dated 1998).

Legend:
[1] = system: patients with terminate stage of cancer
Excerpt: 27 patients with terminate stage of cancer participated in this study. The study group consisted of 19 females and 8 males between 14 and 59 years of age. 3 of them have had malignant brain tumors glioblastoma multiforme, 9 patients had breast carcinoma with massive metastasis to the liver or brain, one patient had intermediate stage lymphoma, one of them had stomach cancer with liver metastasis, three patients had hepatomas with lung metastasis, and two of them pancreatic cancer with liver metastasis.
19 patients were given GMDP orally at dosage of 50 mg daily as a water solution for fourteen days. 8 patients received a placebo.
Results were expressed as percentage change in LDH activity from pretreatment values.

[2] = system: E6/1.2 anti-GMDP monoclonal antibody; test: Antibody capture assay with antigen competition variation; assay type: binding, mouse; details: 1 μg/well and 0.1 μg/well GMDP-Lys-PAA; FIGS. 1A,B and 2
Excerpt: Antibody capture assay (Antibodies: A laboratory Manual (E. Harlow and D. Lane, eds.), Cold Spring Harbor Laboratory, 1988) with antigen competition variation has been used to detect GMDP in human […]. Highly specific mouse E6/1.2 anti-GMDP monoclonal antibody (Ka=2×10^9 M^-1) and GMDP conjugated to polyacrylamide backbone through amino group of lysine (GMDP-Lys-PAA) were obtained from Dr. Nesmeyanov, the Shemyakin and Ovchinnikov Institute of Bioorganic Chemistry, Russian Academy of Sciences, Moscow, Russia.
Briefly, GMDP-Lys-PAA or serial dilutions of human female milk in phosphate buffered saline (PBS) were adsorbed onto wells of microtiter plates for several hours. After washing with PBS, remaining binding sites were blocked by 1 h incubations with 200 μl PBS+3% bovine serum albumin (BSA). After washing with PBS 100 μl of E6/1.2 antibody, diluted 1:1,000 or 1:2,000 with PBS+1% BSA, were added. The incubation was carried out for 1 h at room temperature. […] Optical density at 492 nm was measured.
Two different amounts of GMDP-Lys-PAA in PBS were adsorbed onto wells of microtiter plates (1 μg/well and 0.1 μg/well). […] Inhibition index (I,%) was calculated from: I=(1-Ao/A1)×100, where Ao and A1 are optical densities of samples without or with inhibitor, respectively.

[3] = system: isolated cardiac myocytes; test: Effects of TNF-α on contractivity of adult cardiac myocytes (cell shortening, video edge detection); assay type: cell-based, human
Procedure: Myocardial samples were obtained from organ donors, whose hearts were initially considered for cardiac transplantation but were subsequently deemed unsuitable for transplantation because of blood type or size incompatibility. Freshly isolated myocytes were treated for 60 minutes at 37° C. with single concentration of GMDP (5 μg/ml). Control cells were treated with single concentration of recombinant human TNF-α (Genzyme) that is known to produce negative inotropic effects in isolated cardiac myocytes (200 μ/ml). Cell motion was characterized with video edge detection as previously described in detail (17). Results were expressed as percentage change in cell length from resting values.

[4] = system: patients with terminate stage of cancer; remark: listed apart in the source
Excerpt: Results were expressed as percentage change in both triglycerides and cholesterol level from pretreatment values.

[5] = system: isolated cardiac myocytes; test: Intracellular fluorescence brightness in isolated cardiac myocytes; assay type: cell-based; details: 200 μ/ml TNF-α; n=45 cells/group; FIG. 7 insert
Excerpt: As shown, the peak level of intracellular fluorescence brightness was reduced strikingly for the cells treated with 200 μ/ml TNF-α.

Molecule | overall clinical condition during the follow up period ([1]; all patients treated with GMDP) | side effects ([1]; orally 50 mg daily as water solution for fourteen days) | decreasing of LDH activity (percentage change from pretreatment values) ([1]; orally 50 mg daily, fourteen days, lowest level at the fourteenth day, FIG. 8) [%] | nausea and vomiting subsided ([1]; patients who had these symptoms of tumor toxicity before treatment) [patients] | inhibition of E6/1.2 antibody interaction with the adsorbed GMDP-Lys-PAA [2] | negative inotropic effects of TNF-α in isolated cardiac myocytes ([3]; FIGS. 6 and 7 taken together) | effects of TNF alfa on cell shortening after pretreatment ([3]; GMDP 5 μg/ml, 60 minutes at 37° C., 200 μ/ml TNF alfa, FIG. 6) | reduction of elevated cholesterol level (percentage change from pretreatment values) ([4]; patient treated with GMDP, FIG. 10) [%] | decreasing for triglycerides concentration (percentage change from pretreatment values) ([4]; treated patients with elevated triglycerides, FIG. 9) [%] | decrease in the percent change in peak intensity of fluorescence brightness [5] | cell shortening ([3]; cells treated with TNF-α vs control, n=40 cells/group, FIG. 6)
CC(=O)NC1C(OC2C(CO)OC(O)C(NC(C)=O)C2OC(C)C(=O)NC(C)C(=O)NC(CCC(=O)O)C(N)=O)OC(CO)C(O)C1O [GMDP, N-acetyl-D-glucosaminyl-(β1-4)-N-acetylmuramyl-L-alanyl-D-isoglutamine] | improved | None | 68 | 7 | inhibition | inhibits | completely attenuated | 51 | 82 |  | 
TNF-α [reference compound] |  |  |  |  |  |  |  |  |  | ~ 38% | concentration-dependent decrease
